Assay results from PMC7177633, “Effective Cellular Transport of Ortho-Halogenated Sulfonamide Derivatives of Metformin Is Related to Improved Antiproliferative Activity and Apoptosis Induction in MCF-7 Cells” (International Journal of Molecular Sciences, 2020).

Columns and labels:
Type in all cases: cell-based, human
MCF-7 cells [1] = assay: Cell cycle analysis (PI, flow cytometry), MCF-7; details: MCF-7, 24 h
Protocol: MCF-7 and MDA-MB-231 cells were seeded in 6-well plates at a density of 2 × 10^5 cells per well and cultured for 24 h under standard conditions (with 2 mL of the medium). Next, cells were exposed to the tested compounds at concentrations corresponding to IC50. After 24 h of treatment, control and treated cells were then collected (washed with cold PBS and treated with accutase), transferred to Eppendorf tubes and centrifuged (1100 rpm, 5 min, 5 °C). The supernatant was discarded, cold PBS was added (1 mL) and the cells were centrifuged (1200 rpm, 5 min). The solution was removed, and the cells were fixed in cold 70% ethanol at 4 °C. Prior to the analysis, the cells were centrifuged (3600 rpm, 5 min) and washed twice with PBS. The solution was discarded, the pellets were suspended in 200 µL of PBS and incubated with ribonuclease at 37 °C (25 µL, final concentration in a sample was 100 µg/mL) for 30 min and stained with propidine iodide (12.5 µL, final concentration in a sample was 50 µg/mL) in darkness at room temperature for additional 20 min. The final volume of the sample was 250 µL.
DNA content and the number of cells in individual cell cycle phases was measured by flow cytometry (CytoFlex, blue laser, 480 nm, Beckman-Coulter, Indianapolis, IN, USA). Cells (20,000) were analyzed from each sample. The percentage of cells in each cell cycle phase was calculated from live cells that were expressed as 100%. The data are presented as the mean ± SD of three independent experiments. The coefficients of variation for the assay were established (CV = 0.37–11.78%, depending on the cell population).

MCF-7 cells [2] = assay: Intracellular GSH and GSSG, MCF-7
Protocol: (§1) The quantitative determination of glutathione and glutathione disulfide was performed using the enzymatic recycling method according to the protocol of Rahman. The cells were seeded at a density of 2 × 10^5 per well in a 6-well plate and cultured for 48 h. Then, the cells were treated with tested compounds 1, 4 and 7 at their respective ¼ and ½ IC50 values for MCF-7 and MDA-MB-231 cells. Additionally, controls with pure medium, AAPH (2,2′-Azobis(2-methylpropionamidine) dihydro-chloride, Sigma Aldrich, St. Louis, MO, USA) and ascorbic acid (Polish Chemical Reagents, Poland) were performed. The cells were incubated with compounds for another 24 h, then washed twice with 2 mL of cold, Ca^2+-/Mg^2+-free PBS (Biomed Lublin, Lublin, Poland). The cells were harvested using 1-mL accutase (Sigma Aldrich, St. Louis, MO, USA), and the wells were washed with 1 mL of cold growth medium. The cells were transferred to prechilled 2.0-mL Eppendorf tubes and centrifuged at 1000× g for 5 min at 4 °C. The supernatant was discarded, the pellets were resuspended in 1 mL of cold PBS, the number of cells was determined in each sample and the cellular suspension was centrifuged again. PBS was discarded, and the pellets were stored covered with 30-µL PBS at –70 °C. The following day, the cells were suspended in 0.5 mL of ice-cold extraction buffer (0.1% Triton-X (Polish Chemical Reagents, Gliwice, Poland) and 0.6% sulfosalicylic acid (Sigma Aldrich) in a potassium phosphate buffer with EDTA (Sigma Aldrich)) and sonicated in icy water for 3 min with vortexing every 30 s. The cells were frozen once again at −80 °C, defrosted on ice and frozen once again. Following the second freeze–thaw cycle, the cells were centrifuged at 1500× g for 5 min at 4 °C, and then, immediately, the supernatant was transferred to prechilled Eppendorf tubes. The samples were divided into two parts: one was used to measure GSH, and the other one was derivatized by an addition of 4 µL of 2-vinylpyridine (diluted 1:10 with phosphate buffer) (Sigma Aldrich, St. Louis, MO, USA) to determine the GSSG content.
(§2) GSH measurements included an addition of 20 µL of the tested sample, blank or GSH standard, 120 µL of the mixture of an equal volume of DTNB solution (2 mg dissolved in 3 mL of phosphate buffer, Sigma Aldrich) and glutathione reductase (10 U in 3 mL of phosphate buffer, Sigma Aldrich, St. Louis, MO, USA) and 30 s of incubation to allow the conversion of GSSG to GSH. The final step included the addition of 60 µL of β-NADPH (2 mg dissolved in 3 mL of phosphate buffer, Sigma Aldrich). The absorbance was read immediately at 415 nm in a microplate reader (Bio-Rad), and the measurements were taken every 30 s for 2 min (6 readings in total). The amount of GSH was calculated on the basis of the calibration curve prepared using GSH (Sigma Aldrich, St. Louis, MO, USA) at concentrations ranging from 0.040 to 2.6 nmol/mL.
(§3) The quantification of GSSG in the test samples was performed according to the same procedure as GSH. The samples treated with 2-VP were incubated for one hour at room temperature, and then, 20 µL of the tested sample was analyzed using the same reagents which were applied in the GSH measurements. The amount of GSSG was calculated on the basis of the calibration curve, prepared using GSSG (Sigma Aldrich) at concentrations of 0.040–2.6 nmol/mL. The results are presented as mean ± SD, n = 6–8 and expressed as nmol per […].

MDA-MB-231 cells = assay: Intracellular GSH and GSSG, MDA-MB-231
Protocol: as §1, §2, §3

[3] = IC50 (Comp. 1 13, Comp. 4 430, Comp. 7 55 μmol/L)

Row | Compound | G0/G1 (MCF-7 cells [1]; [3]) [%] | G2/M (MCF-7 cells [1]; [3]) [%] | S (MCF-7 cells [1]; [3]) [%] | Sub G0/G1 (MCF-7 cells [1]; [3]) [%] | GSH (MCF-7 cells [2]; MCF-7, 1/2 × IC50, 24 h) [nmol/1 mln Cells] | GSH:GSSG Ratio (MCF-7 cells [2]; MCF-7, 1/2 × IC50, 24 h) | GSSG (MCF-7 cells [2]; MCF-7, 1/2 × IC50, 24 h) [nmol/1 mln Cells] | GSH (MCF-7 cells [2]; MCF-7, 1/4 × IC50, 24 h) [nmol/1 mln Cells] | GSH:GSSG Ratio (MCF-7 cells [2]; MCF-7, 1/4 × IC50, 24 h) | GSSG (MCF-7 cells [2]; MCF-7, 1/4 × IC50, 24 h) [nmol/1 mln Cells] | GSH (MDA-MB-231 cells; MDA-MB-231, 1/2 × IC50, 24 h) [nmol/1 mln Cells] | GSH:GSSG Ratio (MDA-MB-231 cells; MDA-MB-231, 1/2 × IC50, 24 h) | GSSG (MDA-MB-231 cells; MDA-MB-231, 1/2 × IC50, 24 h) [nmol/1 mln Cells] | GSH (MDA-MB-231 cells; MDA-MB-231, 1/4 × IC50, 24 h) [nmol/1 mln Cells] | GSH:GSSG Ratio (MDA-MB-231 cells; MDA-MB-231, 1/4 × IC50, 24 h) | GSSG (MDA-MB-231 cells; MDA-MB-231, 1/4 × IC50, 24 h) [nmol/1 mln Cells] | G0/G1 (MCF-7 cells [1]; IC50 (Comp. 1 13, Comp. 4 430, Comp. 7 55 µmol/L), listed as Comp. 1) [%]
1 | CN(C)C(=N)N=C(N)NS(=O)(=O)c1ccccc1Br [Compound 4] | 73.69 ± 0.26 | 8.21 ± 0.03 | 15.16 ± 0.54 | 2.98 ± 0.40 | 148.5 ± 4.8 | 24.0 | 6.2 ± 0.7 | 165.4 ± 9.6 | 19.2 | 8.6 ± 0.7 | 242.1 ± 13.7 | 12.3 | 19.6 ± 1.4 | 250.2 ± 12.1 | 12.5 | 19.9 ± 2.3 | –
2 | CN(C)C(=N)N=C(N)NS(=O)(=O)c1ccccc1Cl [Compound 1] | 38.76 ± 0.80 | 17.54 ± 0.48 | 35.45 ± 0.23 | 8.28 ± 1.04 | 167.5 ± 5.1 | 22.6 | 7.4 ± 1.8 | 183.1 ± 8.9 | 20.1 | 9.1 ± 3.9 | 242.0 ± 47.0 | 12.1 | 19.9 ± 2.0 | 238.0 ± 4.3 | 12.2 | 19.5 ± 2.2 | 38.76 ± 0.80
3 | CN(C)C(=N)N=C(N)NS(=O)(=O)c1ccccc1F [Compound 7] | 56.48 ± 3.34 | 15.43 ± 0.93 | 10.34 ± 0.74 | 17.85 ± 2.08 | 169.0 ± 6.0 | 15.9 | 10.6 ± 0.4 | 166.8 ± 12.8 | 21.2 | 7.9 ± 0.9 | 248.7 ± 13.3 | 11.3 | 21.9 ± 2.9 | 265.0 ± 15.9 | 11.8 | 22.5 ± 0.9 | –
